From publication PMC8819633 (Journal of medicinal chemistry, 2021)

Experiments:
Type in all cases: cell-based, human
[1] = tested on: total AKT (T-AKT) and phosphorylated AKT (P-AKT (S473)); experiment: Western blot of AKT degradation in BT474 cells; details: for T-AKT and P-AKT protein degradation (western blot): 24 h, 1, 5 and 10 μM (12-13: 1, 3 and 10 μM); for P-AKT (S473) protein level (western blot): GDC-0068 at 1 μM; for T-AKT protein level (western blot): controls at 1 μM
[2] = tested on: P-PRAS40 (T246) and P-S6 (S240/244); experiment: Western blot of downstream signaling inhibition in BT474 cells; details: 24 h; for inhibition of downstream signaling, P-PRAS40 and P-S6: compared with GDC-0068 (1 μM)
[3] = tested on: T-AKT and P-AKT (S473); experiment: Western blot of AKT degradation in PC3 cells; details: PC3 cells, 1 μM, 24 h
[4] = tested on: P-PRAS40 (T246) and P-S6 (S240/244); experiment: Western blot of downstream signaling inhibition in PC3 cells; details: 1 μM, 24 h, vs GSK690693

Row | Compound | T-AKT and P-AKT protein degradation (western blot) [1] | inhibition of downstream signaling, P-PRAS40 and P-S6 [2] | further results
1 | 3-(((S)-2-(4-Chlorophenyl)-3-(4-((5R,7R)-7-hydroxy-5-methyl-6,7-dihydro-5H-cyclopenta[d]pyrimidin-4-yl)piperazin-1-yl)-3-oxopropyl)amino)-N-(9-(2-(2,6-dioxopiperidin-3-yl)-1,3-dioxoisoindolin-4-yl)nonyl)propenamide [Compound 27] | maintained the excellent AKT degradation | maintained the excellent AKT degradation and downstream signaling inhibition effects | T-AKT and P-AKT degradation ([1]; 1 μM, 24 h): > 95%
2 | Cc1ncsc1-c1ccc([C@H](C)NC(=O)[C@@H]2C[C@@H](O)CN2C(=O)[C@@H](NC(=O)CCCCCCCCCCNC(=O)CCNC[C@@H](C(=O)N2CCN(c3ncnc4c3[C@H](C)C[C@H]4O)CC2)c2ccc(Cl)cc2)C(C)(C)C)cc1 [Compound 12, (2S,4R)-1-((S)-2-(11-(3-(((S)-2-(4-Chlorophenyl)-3-(4-((5R,7R)-7-hydroxy-5-methyl-6,7-dihydro-5H-cyclopenta[d]pyrimidin-4-yl)-piperazin-1-yl)-3-oxopropyl)amino)propanamido)-undecanamido)-3,3-dimethylbutanoyl)-4-hydroxy-N-((S)-1-(4-(4-methylthiazol-5-yl)phenyl)ethyl)pyrrolidine-2-carboxamide] | remarkable effects on degrading T-AKT and P-AKT | more profound inhibition of P-PRAS40 and P-S6 than 11 | –
3 | CCn1c(-c2nonc2N)nc2c(C#CC(C)(C)O)ncc(OCCCNCCCC(=O)NCCCCCCCCNc3cccc4c3C(=O)N(C3CCC(=O)NC3=O)C4=O)c21 (stereo not shown) [Compound 60, 4-((3-((2-(4-Amino-1,2,5-oxadiazol-3-yl)-1-ethyl-4-(3-hydroxy-3-methylbut-1-yn-1-yl)-1H-imidazo[4,5-c]pyridin-7-yl)oxy)propyl)-amino)-N-(8-((2-(2,6-dioxopiperidin-3-yl)-1,3-dioxoisoindolin-4-yl)-amino)octyl)butanamide] | – | – | T-AKT and P-AKT degradation (western blot) [3]: the most effective in degrading T-AKT and P-AKT; inhibition of P-PRAS40 [4]: less effective than GSK690693 in inhibiting P-PRAS40
4 | Cc1ncsc1-c1ccc(CNC(=O)[C@@H]2C[C@@H](O)CN2C(=O)[C@@H](NC(=O)CCCCCCCCCCNC(=O)CCNC[C@@H](C(=O)N2CCN(c3ncnc4c3[C@H](C)C[C@H]4O)CC2)c2ccc(Cl)cc2)C(C)(C)C)cc1 [Compound 11, (2S,4R)-1-((S)-2-(11-(3-(((S)-2-(4-Chlorophenyl)-3-(4-((5R,7R)-7-hydroxy-5-methyl-6,7-dihydro-5H-cyclopenta[d]pyrimidin-4-yl)-piperazin-1-yl)-3-oxopropyl)amino)propanamido)-undecanamido)-3,3-dimethylbutanoyl)-4-hydroxy-N-(4-(4-methyl-thiazol-5-yl)benzyl)pyrrolidine-2-carboxamide] | near-complete degradation of T-AKT and P-AKT at 1 μM | less effective than the parent inhibitor GDC-0068 | hook effect in AKT degradation ([1]; 24 h, higher concentrations (up to 10 μM)): at 5 and 10 μM, a ″hook effect″ was observed
5 | 3-(((S)-2-(4-Chlorophenyl)-3-(4-((5R,7R)-7-hydroxy-5-methyl-6,7-dihydro-5H-cyclopenta[d]pyrimidin-4-yl)piperazin-1-yl)-3-oxopropyl)amino)-N-(8-((2-(2,6-dioxopiperidin-3-yl)-1,3-dioxoisoindolin-4-yl)oxy)octyl)propenamide [Compound 29] | maintained the excellent AKT degradation | maintained the excellent AKT degradation and downstream signaling inhibition effects | T-AKT and P-AKT degradation ([1]; 1 μM, 24 h): > 95%
6 | Cc1ncsc1-c1ccc(CNC(=O)[C@@H]2C[C@@H](O)CN2C(=O)[C@@H](NC(=O)COCCNC(=O)CCNC[C@@H](C(=O)N2CCN(c3ncnc4c3[C@H](C)C[C@H]4O)CC2)c2ccc(Cl)cc2)C(C)(C)C)cc1 [Compound 3, (2S,4R)-1-((2S,15S)-2-(tert-Butyl)-15-(4-chlorophenyl)-16-(4-((5R,7R)-7-hydroxy-5-methyl-6,7-dihydro-5H-cyclopenta[d]-pyrimidin-4-yl)piperazin-1-yl)-4,10,16-trioxo-6-oxa-3,9,13-triaza-hexadecanoyl)-4-hydroxy-N-(4-(4-methylthiazol-5-yl)benzyl)-pyrrolidine-2-carboxamide] | induced significant T-AKT and P-AKT protein degradation at concentrations of 5 and 10 μM | less than GDC-0068 | –
7 | C[C@@H]1C[C@@H](O)c2ncnc(N3CCN(C(=O)[C@H](CNCCNC(=O)CCCCCCCCNc4cccc5c4C(=O)N(C4CCC(=O)NC4=O)C5=O)c4ccc(Cl)cc4)CC3)c21 (stereo partly drawn) [Compound 26, N-(2-(((S)-2-(4-chlorophenyl)-3-(4-((5R,7R)-7-hydroxy-5-methyl-6,7-dihydro-5H-cyclopenta[d]pyrimidin-4-yl)piperazin-1-yl)-3-oxopropyl)amino)ethyl)-9-((2-(2,6-dioxopiperidin-3-yl)-1,3-dioxoisoindolin-4-yl)amino)nonanamide] | – | – | P-AKT (S473) protein level (western blot) ([1]; 24 h): did not reduce the P-AKT level; T-AKT protein level (western blot) ([1]; 24 h): partially degraded T-AKT; inhibition of P-PRAS40 ([2]; 1 μM): as effectively as GDC-0068
8 | CC(C)NC[C@@H](C(=O)N1CCN(c2ncnc3c2[C@H](C)C[C@H]3O)CC1)c1ccc(Cl)cc1 [GDC-0068, reference compound] | – | effectively inhibited downstream signaling | time course of T-AKT and P-AKT degradation ([1]; 1 μM, indicated times): no effect on the T-AKT protein level and increased the P-AKT protein level; P-AKT (S473) protein level (western blot) ([1]; 24 h): AKT hyperphosphorylation; T-AKT protein level (western blot) ([1]; 24 h): no detectable effect on the T-AKT protein level
9 | CCn1c(-c2nonc2N)nc2c(C#CC(C)(C)O)ncc(OCCCNCCCC(=O)NCCCCCCCCCCC(=O)N[C@H](C(=O)N3C[C@H](O)C[C@H]3C(=O)NCc3ccc(-c4scnc4C)cc3)C(C)(C)C)c21 [Compound 48, (2S,4R)-1-((S)-2-(11-(4-((3-((2-(4-Amino-1,2,5-oxadiazol-3-yl)-1-ethyl-4-(3-hydroxy-3-methylbut-1-yn-1-yl)-1H-imidazo[4,5-c]-pyridin-7-yl)oxy)propyl)amino)butanamido)undecanamido)-3,3-dimethylbutanoyl)-4-hydroxy-N-(4-(4-methylthiazol-5-yl)benzyl)-pyrrolidine-2-carboxamide] | – | – | T-AKT and P-AKT degradation (western blot) [3]: the most effective in degrading T-AKT and P-AKT; inhibition of P-PRAS40 [4]: less effective than GSK690693 in inhibiting P-PRAS40
10 | 3-(((S)-2-(4-Chlorophenyl)-3-(4-((5R,7R)-7-hydroxy-5-methyl-6,7-dihydro-5H-cyclopenta[d]pyrimidin-4-yl)piperazin-1-yl)-3-oxopropyl)amino)-N-(3-((2-(2,6-dioxopiperidin-3-yl)-1,3-dioxoisoindolin-4-yl)amino)propyl)propenamide [Compound 20] | marginally effective in inducing AKT degradation at 1–10 μM | – | –
11 | 3-(((S)-2-(4-Chlorophenyl)-3-(4-((5R,7R)-7-hydroxy-5-methyl-6,7-dihydro-5H-cyclopenta[d]pyrimidin-4-yl)piperazin-1-yl)-3-oxopropyl)amino)-N-(4-((2-(2,6-dioxopiperidin-3-yl)-1,3-dioxoisoindolin-4-yl)amino)butyl)propenamide [Compound 21] | marginally effective in inducing AKT degradation at 1–10 μM | – | –
12 | 3-(((S)-2-(4-Chlorophenyl)-3-(4-((5R,7R)-7-hydroxy-5-methyl-6,7-dihydro-5H-cyclopenta[d]pyrimidin-4-yl)piperazin-1-yl)-3-oxopropyl)amino)-N-(5-((2-(2,6-dioxopiperidin-3-yl)-1,3-dioxoisoindolin-4-yl)amino)pentyl)propenamide [Compound 22] | marginally effective in inducing AKT degradation at 1–10 μM | – | –
13 | (2S,4R)-1-((2S,25S)-2-(tert-Butyl)-25-(4-chlorophenyl)-26-(4-((5R,7R)-7-hydroxy-5-methyl-6,7-dihydro-5H-cyclopenta[d]-pyrimidin-4-yl)piperazin-1-yl)-4,20,26-trioxo-7,10,13,16-tetraoxa-3,19,23-triazahexacosanoyl)-4-hydroxy-N-(4-(4-methylthiazol-5-yl)benzyl)pyrrolidine-2-carboxamide [Compound 5] | less effective in AKT degradation | – | –
14 | Cc1ncsc1-c1ccc(CNC(=O)[C@@H]2C[C@@H](O)CN2C(=O)[C@@H](N)C(C)(C)C)cc1 [VHL-1, reference compound] | – | – | T-AKT protein level (western blot) ([1]; 24 h): no detectable effect on the T-AKT protein level
15 | Cc1ncsc1-c1ccc([C@H](C)NC(=O)[C@H]2C[C@H](O)CN2C(=O)[C@@H](NC(=O)CCCCCCCCCCC(=O)NCCNC[C@@H](C(=O)N2CCN(c3ncnc4c3[C@H](C)C[C@H]4O)CC2)c2ccc(Cl)cc2)C(C)(C)C)cc1 [Compound 61, N^1-(2-(((S)-2-(4-Chlorophenyl)-3-(4-((5R,7R)-7-hydroxy-5-methyl-6,7-dihydro-5H-cyclopenta[d]pyrimidin-4-yl)piperazin-1-yl)-3-oxopropyl)amino)ethyl)-N^12-((S)-1-((2R,4S)-4-hydroxy-2-(((S)-1-(4-(4-methylthiazol-5-yl)phenyl)ethyl)carbamoyl)pyrrolidin-1-yl)-3,3-dimethyl-1-oxobutan-2-yl)dodecanediamide] | – | – | extent of T-AKT degradation in concentration-response ([1]; 24 h, indicated concentrations): did not degrade T-AKT
16 | 3-(((S)-2-(4-Chlorophenyl)-3-(4-((5R,7R)-7-hydroxy-5-methyl-6,7-dihydro-5H-cyclopenta[d]pyrimidin-4-yl)piperazin-1-yl)-3-oxopropyl)amino)-N-(2-(2-((2-(2,6-dioxopiperidin-3-yl)-1,3-dioxoisoindolin-4-yl)amino)ethoxy)ethyl)propenamide [Compound 14] | not very effective at all concentrations tested | – | –
